Values of other authors as cited in patent US9358213B2, “Pharmaceutical compositions of duloxetine” (priority 2007, dated 2016).

In the case of `CNCC[C@H](Oc1cccc2ccccc12)c1cccs1` [Duloxetine], the “stability at alkaline pH” value (alkaline pH) is given as “stable”, the “dosage hydrolyzed to 1-naphthol” value (pH of 1.0, within one hour) is given as 50% and the “dosage degrades to 1-naphthol” value (pH of 2.0, in one hour) is given as 10%. The “time for 10% degradation” value (pH of 4.0) was “up to 63 hours”.
